Assay results taken from publication PMC11033320, “Activation of p53 signaling and regression of breast and prostate carcinoma cells by spirooxindole-benzimidazole small molecules” (Frontiers in Pharmacology, 2024).

Key:
SNB-75 = experiment: NCI anticancer screening, CNS Cancer SNB-75; format: cell-based; settings: Homo sapiens; SNB-75, 10 μM; read-out: % Growth Inhibition (GI %)
Method in brief: (§1)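 Screening followed the usual DTP procedure for organic compounds across the NCI-60 panel of human tumor lines.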

NCI/ADR-RES = experiment: NCI anticancer screening, Ovarian Cancer NCI/ADR-RES; format: cell-based; settings: Homo sapiens, read-out: % Growth Inhibition (GI %)
Method in brief: as §1

A549/ATCC = experiment: NCI anticancer screening, Non-Small Cell Lung Cancer A549/ATCC; format: cell-based; settings: Homo sapiens, read-out: % Growth Inhibition (GI %)
Method in brief: as §1

RXF 393 = experiment: NCI anticancer screening, Renal Cancer RXF 393; format: cell-based; settings: Homo sapiens; RXF 393, 10 μM; read-out: % Growth Inhibition (GI %)
Method in brief: as §1

MCF7 = experiment: NCI anticancer screening, Breast Cancer MCF7; format: cell-based; settings: Homo sapiens; MCF7, 10 μM; read-out: % Growth Inhibition (GI %)
Method in brief: as §1

K-562 = experiment: NCI anticancer screening, Leukemia K-562; format: cell-based; settings: Homo sapiens, K562; K-562, 10 μM; read-out: % Growth Inhibition (GI %)
Method in brief: as §1

MDA-MB-435 = experiment: NCI anticancer screening, Melanoma MDA-MB-435; format: cell-based; settings: Homo sapiens; MDA-MB-435, 10 μM; read-out: % Growth Inhibition (GI %)
Method in brief: as §1

SF-295 = experiment: NCI anticancer screening, CNS Cancer SF-295; format: cell-based; settings: Homo sapiens; SF-295, 10 μM; read-out: % Growth Inhibition (GI %)
Method in brief: as §1

LOX IMVI = experiment: NCI anticancer screening, Melanoma LOX IMVI; format: cell-based; settings: Homo sapiens, read-out: % Growth Inhibition (GI %)
Method in brief: as §1

SN12C = experiment: NCI anticancer screening, Renal Cancer SN12C; format: cell-based; settings: Homo sapiens, read-out: % Growth Inhibition (GI %)
Method in brief: as §1

BT-549 = experiment: NCI anticancer screening, Breast Cancer BT-549; format: cell-based; settings: Homo sapiens; BT-549, 10 μM; read-out: % Growth Inhibition (GI %)
Method in brief: as §1

OVCAR-8 = experiment: NCI anticancer screening, Ovarian Cancer OVCAR-8; format: cell-based; settings: Homo sapiens; OVCAR-8, 10 μM; read-out: % Growth Inhibition (GI %)
Method in brief: as §1

SK-MEL-5 = experiment: NCI anticancer screening, Melanoma SK-MEL-5; format: cell-based; settings: Homo sapiens; SK-MEL-5, 10 μM; read-out: % Growth Inhibition (GI %)
Method in brief: as §1

HT29 = experiment: NCI anticancer screening, Colon Cancer HT29; format: cell-based; settings: Homo sapiens, HT-29; HT29, 10 μM; read-out: % Growth Inhibition (GI %)
Method in brief: as §1

OVCAR-5 = experiment: NCI anticancer screening, Ovarian Cancer OVCAR-5; format: cell-based; settings: Homo sapiens; OVCAR-5, 10 μM; read-out: % Growth Inhibition (GI %)
Method in brief: as §1

SK-MEL-28 = experiment: NCI anticancer screening, Melanoma SK-MEL-28; format: cell-based; settings: Homo sapiens; SK-MEL-28, 10 μM; read-out: % Growth Inhibition (GI %)
Method in brief: as §1

M14 = experiment: NCI anticancer screening, Melanoma M14; format: cell-based; settings: Homo sapiens; M14, 10 μM; read-out: % Growth Inhibition (GI %)
Method in brief: as §1

OVCAR-4 = experiment: NCI anticancer screening, Ovarian Cancer OVCAR-4; format: cell-based; settings: Homo sapiens; OVCAR-4, 10 μM; read-out: % Growth Inhibition (GI %)
Method in brief: as §1

DU-145 = experiment: NCI anticancer screening, DU-145; format: cell-based; settings: Homo sapiens; DU-145, 10 μM; read-out: % Growth Inhibition (GI %)
Method in brief: as §1

HOP-62 = experiment: NCI anticancer screening, Non-Small Cell Lung Cancer HOP-62; format: cell-based; settings: Homo sapiens; HOP-62, 10 μM; read-out: % Growth Inhibition (GI %)
Method in brief: as §1

MDA-MB-468 = experiment: NCI anticancer screening, Breast Cancer MDA-MB-468; format: cell-based; settings: Homo sapiens, read-out: % Growth Inhibition (GI %)
Method in brief: as §1

ACHN = experiment: NCI anticancer screening, Renal Cancer ACHN; format: cell-based; settings: Homo sapiens, read-out: % Growth Inhibition (GI %)
Method in brief: as §1

SF-268 = experiment: NCI anticancer screening, CNS Cancer SF-268; format: cell-based; settings: Homo sapiens; SF-268, 10 μM; read-out: % Growth Inhibition (GI %)
Method in brief: as §1

HCC-2998 = experiment: NCI anticancer screening, Colon Cancer HCC-2998; format: cell-based; settings: Homo sapiens; HCC-2998, 10 μM; read-out: % Growth Inhibition (GI %)
Method in brief: as §1

HS 578T = experiment: NCI anticancer screening, Breast Cancer HS 578T; format: cell-based; settings: Homo sapiens, read-out: % Growth Inhibition (GI %)
Method in brief: as §1

MALME-3M = experiment: NCI anticancer screening, Melanoma MALME-3M; format: cell-based; settings: Homo sapiens, read-out: % Growth Inhibition (GI %)
Method in brief: as §1

NCI-H23 = experiment: NCI anticancer screening, Non-Small Cell Lung Cancer NCI-H23; format: cell-based; settings: Homo sapiens; NCI-H23, 10 μM; read-out: % Growth Inhibition (GI %)
Method in brief: as §1

IGROV1 = experiment: NCI anticancer screening, Ovarian Cancer IGROV1; format: cell-based; settings: Homo sapiens, IGROV-1; IGROV1, 10 μM; read-out: % Growth Inhibition (GI %)
Method in brief: as §1

CCRF-CEM = experiment: NCI anticancer screening, Leukemia CCRF-CEM; format: cell-based; settings: Homo sapiens, read-out: % Growth Inhibition (GI %)
Method in brief: as §1

HCT-15 = experiment: NCI anticancer screening, Colon Cancer HCT-15; format: cell-based; settings: Homo sapiens; HCT-15, 10 μM; read-out: % Growth Inhibition (GI %)
Method in brief: as §1

U251 = experiment: NCI anticancer screening, CNS Cancer U251; format: cell-based; settings: Homo sapiens, U-251; U251, 10 μM; read-out: % Growth Inhibition (GI %)
Method in brief: as §1

KM12 = experiment: NCI anticancer screening, Colon Cancer KM12; format: cell-based; settings: Homo sapiens; KM12, 10 μM; read-out: % Growth Inhibition (GI %)
Method in brief: as §1

HCT-116 = experiment: NCI anticancer screening, Colon Cancer HCT-116; format: cell-based; settings: Homo sapiens; HCT-116, 10 μM; read-out: % Growth Inhibition (GI %)
Method in brief: as §1

SW-620 = experiment: NCI anticancer screening, Colon Cancer SW-620; format: cell-based; settings: Homo sapiens; SW-620, 10 μM; read-out: % Growth Inhibition (GI %)
Method in brief: as §1

HL-60(TB) = experiment: NCI anticancer screening, Leukemia HL-60(TB); format: cell-based; settings: Homo sapiens, read-out: % Growth Inhibition (GI %)
Method in brief: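 Run at the Developmental Therapeutics Program following its standard screen of sixty human tumour cell lines for organics.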

NCI-H322M = experiment: NCI anticancer screening, Non-Small Cell Lung Cancer NCI-H322M; format: cell-based; settings: Homo sapiens, read-out: % Growth Inhibition (GI %)
Method in brief: as §1

786-0 = experiment: NCI anticancer screening, Renal Cancer 786-0; format: cell-based; settings: Homo sapiens; 786-0, 10 μM; read-out: % Growth Inhibition (GI %)
Method in brief: as §1

Protocol for MDA-MB 231 cells: Anticancer effect of the above-mentioned compounds was assayed using three human cancer cell lines. Triple negative breast cancer cell line (MDA-MB 231) and prostate cancer cell line (PC3) were cultured in DMEM (Lonza, USA) supplemented with 10% FBS. All cancer cells (4x10^3 cells/well) were seeded in sterile 96-well plates. After 24h, serial concentrations of the tested compounds were incubated with three cancer cell lines for 72 h at 37 °C in 5% CO2 incubator. […] The half maximal inhibitory concentration (IC50) values were calculated using the Graphpad Instat software.

**Q.** Which results are given for `O=C(c1nc2ccccc2[nH]1)[C@H]1[C@H](c2ccco2)C2CSCN2[C@]12C(=O)Nc1ccccc12` (stereo partly drawn) [Compound 6n, (3S,6′R)-6'-(1H-Benzo [d]imidazole-2-carbonyl)-7'-(furan-2-yl)-3′,6′,7′,7a′-tetrahydro-1′H-spiro [indoline-3.5′-pyrrolo [1,2-c]thiazol]-2-one]?
**A.** inhibition at 10 µM (SNB-75): 96%; inhibition at 10 µM (NCI/ADR-RES): 101%; inhibition at 10 µM (A549/ATCC): 102%; inhibition at 10 µM (RXF 393): 104%; inhibition at 10 µM (MCF7): 100%; inhibition at 10 µM (K-562): 89.8%; inhibition at 10 µM (MDA-MB-435): 105%; inhibition at 10 µM (SF-295): 109%; inhibition at 10 µM (LOX IMVI): 91.7%; inhibition at 10 µM (SN12C): 92.5%; inhibition at 10 µM (BT-549): 110%; inhibition at 10 µM (OVCAR-8): 101%; inhibition at 10 µM (SK-MEL-5): 98.2%; inhibition at 10 µM (HT29): 115%; inhibition at 10 µM (OVCAR-5): 97.2%; inhibition at 10 µM (SK-MEL-28): 107%; inhibition at 10 µM (M14): 101%; inhibition at 10 µM (OVCAR-4): 99.2%; IC50 (MDA-MB 231 cells): 6.14 ± 0.246 µM; inhibition (MDA-MB 231 cells; 5 µM): 52.9 ± 2.5%; inhibition at 10 µM (DU-145): 114%; inhibition at 10 µM (HOP-62): 99.8%; inhibition at 10 µM (MDA-MB-468): 102%; inhibition at 10 µM (ACHN): 93.7%; inhibition at 10 µM (SF-268): 102%; inhibition at 10 µM (HCC-2998): 104%; inhibition at 10 µM (HS 578T): 91.3%; melting point: 240 to 242 °C; inhibition at 10 µM (MALME-3M): 102%; inhibition at 10 µM (NCI-H23): 92.9%; inhibition at 10 µM (IGROV1): 92.4%; inhibition at 10 µM (CCRF-CEM): 110%; inhibition at 10 µM (HCT-15): 105%; inhibition at 10 µM (U251): 109%; inhibition at 10 µM (KM12): 102%; inhibition at 10 µM (HCT-116): 98.6%; inhibition at 10 µM (SW-620): 95.6%; inhibition at 10 µM (HL-60(TB)): 98.4%; inhibition at 10 µM (NCI-H322M): 101%; inhibition at 10 µM (786-0): 104%
